Laboratory results: PubChem BioAssay (NCI)
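In this assay, cells in 96-well plates receive the compound at five concentrations for 48 hours. Endpoints are linearly interpolated between the surrounding concentrations. Abbreviation: GI50, concentration required for 50% inhibition of growth. TGI: total growth inhibition.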

Key:
Assay in all cases: NCI anticancer screen, dose series, 48 h
NCI-H23 lung = system: NCI-H23 lung
SW-620 colon = system: SW-620 colon
OVCAR-4 ovarian = system: OVCAR-4 ovarian
EKVX NSCLC = system: EKVX NSCLC
SF-539 CNS = system: SF-539 CNS
HOP-62 NSCLC = system: HOP-62 NSCLC
OVCAR-3 ovarian = system: OVCAR-3 ovarian
HS 578T breast = system: HS 578T breast
IGROV1 ovarian = system: IGROV1 ovarian
TK-10 renal = system: TK-10 renal
NCI-H460 lung = system: NCI-H460 lung
SR leukemia = system: SR leukemia
HCT-116 colon = system: HCT-116 colon
SK-MEL-5 melanoma = system: SK-MEL-5 melanoma
HCC-2998 colon = system: HCC-2998 colon
786-0 renal = system: 786-0 renal
SN12C renal = system: SN12C renal
SK-MEL-2 melanoma = system: SK-MEL-2 melanoma
ACHN renal = system: ACHN renal
RPMI-8226 leukemia = system: RPMI-8226 leukemia
HT29 colon = system: HT29 colon
BT-549 breast = system: BT-549 breast
OVCAR-5 ovarian = system: OVCAR-5 ovarian
MALME-3M melanoma = system: MALME-3M melanoma
PC-3 prostate = system: PC-3 prostate
MOLT-4 leukemia = system: MOLT-4 leukemia
COLO 205 colon = system: COLO 205 colon
CAKI-1 renal = system: CAKI-1 renal
K-562 leukemia = system: K-562 leukemia
UO-31 renal = system: UO-31 renal
CCRF-CEM leukemia = system: CCRF-CEM leukemia
HL-60(TB) leukemia = system: HL-60(TB) leukemia
SK-OV-3 ovarian = system: SK-OV-3 ovarian
UACC-62 melanoma = system: UACC-62 melanoma
SF-295 CNS = system: SF-295 CNS
HCT-15 colon = system: HCT-15 colon
MCF7 breast = system: MCF7 breast
KM12 colon = system: KM12 colon
DU-145 prostate = system: DU-145 prostate
M14 melanoma = system: M14 melanoma
A549 NSCLC = system: A549 NSCLC
A498 renal = system: A498 renal
OVCAR-8 ovarian = system: OVCAR-8 ovarian
SK-MEL-28 melanoma = system: SK-MEL-28 melanoma
NCI/ADR-RES ovarian = system: NCI/ADR-RES ovarian
SNB-19 CNS = system: SNB-19 CNS
NCI-H522 lung = system: NCI-H522 lung
U251 CNS = system: U251 CNS
MDA-MB-435 = system: MDA-MB-435
UACC-257 melanoma = system: UACC-257 melanoma
SNB-75 CNS = system: SNB-75 CNS
LOX IMVI melanoma = system: LOX IMVI melanoma
NCI-H226 lung = system: NCI-H226 lung
SF-268 CNS = system: SF-268 CNS
MDA-MB-231 breast = system: MDA-MB-231 breast

Question: How did the GI50 (NCI-H23 lung) turn out when COc1cccc(C2C3=C(COC3=O)N(CCO)c3cc(OC)ccc32)c1 (configuration not stated) was run?
Answer: 172 nM

Question: What about the TGI (NCI-H23 lung) of the same compound?
Answer: > 100000 nM

Question: What about the GI50 (SW-620 colon) of the same compound?
Answer: 86.3 nM

Question: What about the TGI (SW-620 colon) of the same compound?
Answer: > 100000 nM

Question: What about the GI50 (OVCAR-4 ovarian) of the same compound?
Answer: 153 nM

Question: And the TGI (OVCAR-4 ovarian)?
Answer: > 100000 nM

Question: And the GI50 (EKVX NSCLC)?
Answer: 22600 nM

Question: What about the TGI (EKVX NSCLC) of the same compound?
Answer: > 100000 nM

Question: What about the GI50 (SF-539 CNS) of the same compound?
Answer: 87.8 nM

Question: What about the GI50 (HOP-62 NSCLC) of the same compound?
Answer: 124 nM

Question: What about the TGI (HOP-62 NSCLC) of the same compound?
Answer: > 100000 nM

Question: What about the GI50 (OVCAR-3 ovarian) of the same compound?
Answer: 34.7 nM

Question: What about the TGI (OVCAR-3 ovarian) of the same compound?
Answer: 166 nM

Question: What about the GI50 (HS 578T breast) of the same compound?
Answer: 188 nM

Question: And the TGI (HS 578T breast)?
Answer: > 80800 nM

Question: What about the GI50 (IGROV1 ovarian) of the same compound?
Answer: 305 nM

Question: What about the TGI (IGROV1 ovarian) of the same compound?
Answer: > 100000 nM

Question: What about the TGI (TK-10 renal) of the same compound?
Answer: > 100000 nM

Question: And the GI50 (NCI-H460 lung)?
Answer: 90.6 nM

Question: What about the GI50 (SR leukemia) of the same compound?
Answer: 49.3 nM

Question: And the TGI (SR leukemia)?
Answer: > 100000 nM

Question: What about the GI50 (HCT-116 colon) of the same compound?
Answer: 107 nM

Question: And the GI50 (SK-MEL-5 melanoma)?
Answer: 47.4 nM

Question: What about the TGI (SK-MEL-5 melanoma) of the same compound?
Answer: 1970 nM

Question: And the GI50 (HCC-2998 colon)?
Answer: 137 nM

Question: And the TGI (HCC-2998 colon)?
Answer: > 100000 nM

Question: What about the GI50 (786-0 renal) of the same compound?
Answer: 148 nM

Question: What about the TGI (786-0 renal) of the same compound?
Answer: > 29600 nM

Question: What about the GI50 (SN12C renal) of the same compound?
Answer: 493 nM

Question: What about the TGI (SN12C renal) of the same compound?
Answer: > 100000 nM

Question: And the GI50 (SK-MEL-2 melanoma)?
Answer: 536 nM

Question: And the GI50 (ACHN renal)?
Answer: 230 nM

Question: And the TGI (ACHN renal)?
Answer: > 100000 nM

Question: And the GI50 (RPMI-8226 leukemia)?
Answer: 271 nM

Question: What about the TGI (RPMI-8226 leukemia) of the same compound?
Answer: > 100000 nM

Question: What about the GI50 (HT29 colon) of the same compound?
Answer: 74.3 nM

Question: What about the TGI (HT29 colon) of the same compound?
Answer: 2900 nM

Question: And the GI50 (BT-549 breast)?
Answer: 295 nM

Question: What about the TGI (BT-549 breast) of the same compound?
Answer: > 28500 nM

Question: What about the GI50 (OVCAR-5 ovarian) of the same compound?
Answer: 442 nM

Question: And the TGI (OVCAR-5 ovarian)?
Answer: > 100000 nM

Question: And the GI50 (MALME-3M melanoma)?
Answer: 78.6 nM

Question: What about the TGI (MALME-3M melanoma) of the same compound?
Answer: > 100000 nM

Question: What about the GI50 (PC-3 prostate) of the same compound?
Answer: 89.8 nM

Question: And the TGI (PC-3 prostate)?
Answer: > 100000 nM

Question: And the GI50 (MOLT-4 leukemia)?
Answer: 440 nM

Question: And the TGI (MOLT-4 leukemia)?
Answer: > 100000 nM

Question: And the GI50 (COLO 205 colon)?
Answer: 107 nM

Question: What about the TGI (COLO 205 colon) of the same compound?
Answer: 755 nM

Question: What about the GI50 (CAKI-1 renal) of the same compound?
Answer: 768 nM

Question: What about the TGI (CAKI-1 renal) of the same compound?
Answer: > 100000 nM

Question: And the GI50 (K-562 leukemia)?
Answer: 89.5 nM

Question: And the TGI (K-562 leukemia)?
Answer: > 100000 nM

Question: What about the GI50 (UO-31 renal) of the same compound?
Answer: 187 nM

Question: And the TGI (UO-31 renal)?
Answer: > 100000 nM

Question: And the GI50 (CCRF-CEM leukemia)?
Answer: 204 nM

Question: And the TGI (CCRF-CEM leukemia)?
Answer: > 100000 nM

Question: What about the GI50 (HL-60(TB) leukemia) of the same compound?
Answer: 276 nM

Question: And the TGI (HL-60(TB) leukemia)?
Answer: > 100000 nM

Question: And the GI50 (SK-OV-3 ovarian)?
Answer: 109 nM

Question: And the GI50 (UACC-62 melanoma)?
Answer: 48.8 nM

Question: What about the TGI (UACC-62 melanoma) of the same compound?
Answer: > 100000 nM

Question: And the GI50 (SF-295 CNS)?
Answer: 42.2 nM

Question: And the TGI (SF-295 CNS)?
Answer: > 100000 nM

Question: And the GI50 (HCT-15 colon)?
Answer: 121 nM

Question: And the TGI (HCT-15 colon)?
Answer: > 100000 nM

Question: What about the GI50 (MCF7 breast) of the same compound?
Answer: 34.8 nM

Question: What about the TGI (MCF7 breast) of the same compound?
Answer: > 100000 nM

Question: What about the GI50 (KM12 colon) of the same compound?
Answer: 54.3 nM

Question: And the GI50 (DU-145 prostate)?
Answer: 139 nM

Question: And the TGI (DU-145 prostate)?
Answer: 1910 nM

Question: What about the GI50 (M14 melanoma) of the same compound?
Answer: 156 nM

Question: What about the TGI (M14 melanoma) of the same compound?
Answer: > 100000 nM

Question: And the GI50 (A549 NSCLC)?
Answer: 120 nM

Question: What about the TGI (A549 NSCLC) of the same compound?
Answer: > 100000 nM

Question: What about the GI50 (A498 renal) of the same compound?
Answer: 36.7 nM

Question: What about the TGI (A498 renal) of the same compound?
Answer: 1080 nM

Question: And the GI50 (OVCAR-8 ovarian)?
Answer: 206 nM

Question: And the TGI (OVCAR-8 ovarian)?
Answer: > 100000 nM

Question: And the GI50 (SK-MEL-28 melanoma)?
Answer: 130 nM

Question: What about the TGI (SK-MEL-28 melanoma) of the same compound?
Answer: > 100000 nM

Question: What about the GI50 (NCI/ADR-RES ovarian) of the same compound?
Answer: 90.8 nM

Question: And the GI50 (SNB-19 CNS)?
Answer: 221 nM

Question: What about the TGI (SNB-19 CNS) of the same compound?
Answer: > 100000 nM

Question: What about the GI50 (NCI-H522 lung) of the same compound?
Answer: 30.7 nM

Question: And the TGI (NCI-H522 lung)?
Answer: 1440 nM

Question: What about the GI50 (U251 CNS) of the same compound?
Answer: 99.2 nM

Question: What about the TGI (U251 CNS) of the same compound?
Answer: > 100000 nM

Question: What about the GI50 (MDA-MB-435) of the same compound?
Answer: 23.2 nM

Question: What about the TGI (MDA-MB-435) of the same compound?
Answer: 63.1 nM

Question: And the GI50 (UACC-257 melanoma)?
Answer: 36 nM

Question: And the TGI (UACC-257 melanoma)?
Answer: > 100000 nM

Question: And the GI50 (SNB-75 CNS)?
Answer: 67.1 nM

Question: What about the TGI (SNB-75 CNS) of the same compound?
Answer: > 100000 nM

Question: What about the GI50 (LOX IMVI melanoma) of the same compound?
Answer: 227 nM

Question: What about the TGI (LOX IMVI melanoma) of the same compound?
Answer: > 100000 nM

Question: What about the GI50 (NCI-H226 lung) of the same compound?
Answer: 182 nM

Question: What about the TGI (NCI-H226 lung) of the same compound?
Answer: 8860 nM

Question: And the GI50 (SF-268 CNS)?
Answer: 181 nM

Question: What about the TGI (SF-268 CNS) of the same compound?
Answer: > 100000 nM

Question: What about the GI50 (MDA-MB-231 breast) of the same compound?
Answer: 362 nM

Question: What about the TGI (MDA-MB-231 breast) of the same compound?
Answer: 4910 nM
